Experimental data as given in the NIST ThermoML archive (doi:10.1016/j.fluid.2012.02.005).
± gives the expanded uncertainty stated by the source.

conditions: Liquid; Ebulliometric method (Recirculating still)

| Normal boiling temperature [°C] | Structure (SMILES) |
| --- | --- |
| 73.00 ± 0.2 | CC(C)=C(C)C [2,3-dimethyl-2-butene] |
| 28.00 ± 0.21 | CCC(C)C [2-methylbutane] |
| 115.20 ± 0.2 | Cc1ccsc1 [3-methylthiophene] |
| 98.49 ± 0.2 | CCCCCCC [heptane] |

| Structure (SMILES) | Normal boiling temperature [°C] |
| --- | --- |
| Cc1ccccc1 [toluene] | 110.54 ± 0.2 |
